Measured values as given in publication PMC11277489, “Novel Piperazine Derivatives of Vindoline as Anticancer Agents” (International Journal of Molecular Sciences, 2024).

Columns and labels:
Assay type in all cases: cell-based
CCRF-CEM = assay: NCI60 five-dose screen, Leukemia; details: Homo sapiens, Leukemia, five-dose screen, read-out: GI50
HL-60(TB) = assay: NCI60 five-dose screen, Leukemia; details: Homo sapiens; HL-60(TB), Leukemia; five-dose screen; read-out: GI50
K-562 = assay: NCI60 five-dose screen, Leukemia; details: Homo sapiens, K562; K-562, Leukemia; five-dose screen; read-out: GI50
MOLT-4 = assay: NCI60 five-dose screen, Leukemia; details: Homo sapiens; MOLT-4, Leukemia; five-dose screen; read-out: GI50
SR = assay: NCI60 five-dose screen, Leukemia; details: Homo sapiens, Leukemia, five-dose screen, read-out: GI50
A549/ATCC = assay: NCI60 five-dose screen, Non-small Cell Lung Cancer; details: Homo sapiens; A549/ATCC, Non-small Cell Lung Cancer; five-dose screen; read-out: GI50
EKVX = assay: NCI60 five-dose screen, Non-small Cell Lung Cancer; details: Homo sapiens, Non-small Cell Lung Cancer, five-dose screen, read-out: GI50
HOP-62 = assay: NCI60 five-dose screen, Non-small Cell Lung Cancer; details: Homo sapiens; HOP-62, Non-small Cell Lung Cancer; five-dose screen; read-out: GI50
NCI-H226 = assay: NCI60 five-dose screen, Non-small Cell Lung Cancer; details: Homo sapiens; NCI-H226, Non-small Cell Lung Cancer; five-dose screen; read-out: GI50
NCI-H23 = assay: NCI60 five-dose screen, Non-small Cell Lung Cancer; details: Homo sapiens; NCI-H23, Non-small Cell Lung Cancer; five-dose screen; read-out: GI50
NCI-H460 = assay: NCI60 five-dose screen, Non-small Cell Lung Cancer; details: Homo sapiens; NCI-H460, Non-small Cell Lung Cancer; five-dose screen; read-out: GI50
NCI-H522 = assay: NCI60 five-dose screen, Non-small Cell Lung Cancer; details: Homo sapiens; NCI-H522, Non-small Cell Lung Cancer; five-dose screen; read-out: GI50
HCC-2998 = assay: NCI60 five-dose screen, Colon Cancer; details: Homo sapiens; HCC-2998, Colon Cancer; five-dose screen; read-out: GI50
HCT-116 = assay: NCI60 five-dose screen, Colon Cancer; details: Homo sapiens; HCT-116, Colon Cancer; five-dose screen; read-out: GI50
HT29 = assay: NCI60 five-dose screen, Colon Cancer; details: Homo sapiens, HT-29; HT29, Colon Cancer; five-dose screen; read-out: GI50
SW-620 = assay: NCI60 five-dose screen, Colon Cancer; details: Homo sapiens; SW-620, Colon Cancer; five-dose screen; read-out: GI50
SF-268 = assay: NCI60 five-dose screen, CNS Cancer; details: Homo sapiens; SF-268, CNS Cancer; five-dose screen; read-out: GI50
SF-295 = assay: NCI60 five-dose screen, CNS Cancer; details: Homo sapiens; SF-295, CNS Cancer; five-dose screen; read-out: GI50
SF-539 = assay: NCI60 five-dose screen, CNS Cancer; details: Homo sapiens; SF-539, CNS Cancer; five-dose screen; read-out: GI50
SNB-75 = assay: NCI60 five-dose screen, CNS Cancer; details: Homo sapiens; SNB-75, CNS Cancer; five-dose screen; read-out: GI50
MALME-3M = assay: NCI60 five-dose screen, Melanoma; details: Homo sapiens; MALME-3M, Melanoma; five-dose screen; read-out: GI50
MDA-MB-435 = assay: NCI60 five-dose screen, Melanoma; details: Homo sapiens; MDA-MB-435, Melanoma; five-dose screen; read-out: GI50
SK-MEL-2 = assay: NCI60 five-dose screen, Melanoma; details: Homo sapiens; SK-MEL-2, Melanoma; five-dose screen; read-out: GI50
SK-MEL-28 = assay: NCI60 five-dose screen, Melanoma; details: Homo sapiens; SK-MEL-28, Melanoma; five-dose screen; read-out: GI50
SK-MEL-5 = assay: NCI60 five-dose screen, Melanoma; details: Homo sapiens; SK-MEL-5, Melanoma; five-dose screen; read-out: GI50
IGROV1 = assay: NCI60 five-dose screen, Ovarian Cancer; details: Homo sapiens, IGROV-1; IGROV1, Ovarian Cancer; five-dose screen; read-out: GI50
OVCAR-5 = assay: NCI60 five-dose screen, Ovarian Cancer; details: Homo sapiens; OVCAR-5, Ovarian Cancer; five-dose screen; read-out: GI50
NCI/ADR-RES = assay: NCI60 five-dose screen, Ovarian Cancer; details: Homo sapiens, Ovarian Cancer, five-dose screen, read-out: GI50
786–0 = assay: NCI60 five-dose screen, Renal Cancer; details: Homo sapiens; 786–0, Renal Cancer; five-dose screen; read-out: GI50
A498 = assay: NCI60 five-dose screen, Renal Cancer; details: Homo sapiens; A498, Renal Cancer; five-dose screen; read-out: GI50
RXF 393 = assay: NCI60 five-dose screen, Renal Cancer; details: Homo sapiens, RXF 393, Renal Cancer
TK-10 = assay: NCI60 five-dose screen, Renal Cancer; details: Homo sapiens; TK-10, Renal Cancer; five-dose screen; read-out: GI50
UO-31 = assay: NCI60 five-dose screen, Renal Cancer; details: Homo sapiens; UO-31, Renal Cancer; five-dose screen; read-out: GI50
PC-3 = assay: NCI60 five-dose screen, Prostate Cancer; details: Homo sapiens; PC-3, Prostate Cancer; five-dose screen; read-out: GI50
HS 578T = assay: NCI60 five-dose screen, Breast Cancer; details: Homo sapiens; HS 578T, Breast Cancer; five-dose screen; read-out: GI50
BT-549 = assay: NCI60 five-dose screen, Breast Cancer; details: Homo sapiens; BT-549, Breast Cancer; five-dose screen; read-out: GI50
T-47D = assay: NCI60 five-dose screen, Breast Cancer; details: Homo sapiens, T47D; T-47D, Breast Cancer; five-dose screen; read-out: GI50

Structure (SMILES)	GI50 (CCRF-CEM) [nM]	GI50 (HL-60(TB)) [nM]	GI50 (K-562) [nM]	GI50 (MOLT-4) [nM]	GI50 (SR) [nM]	GI50 (A549/ATCC) [nM]	GI50 (HOP-62) [nM]	GI50 (NCI-H226) [nM]	GI50 (NCI-H23) [nM]	GI50 (NCI-H460) [nM]	GI50 (NCI-H522) [nM]	GI50 (HCC-2998) [nM]	GI50 (HCT-116) [nM]	GI50 (HT29) [nM]	GI50 (SW-620) [nM]	GI50 (SF-268) [nM]	GI50 (SF-295) [nM]	GI50 (SF-539) [nM]	GI50 (SNB-75) [nM]	GI50 (MALME-3M) [nM]	also measured
CCC12C=CCN3CCC4(c5cc(NC(=O)CN6CCN(c7ccc(C(F)(F)F)cc7)CC6)c(OC)cc5N(C)C4C(O)(C(=O)OC)C1OC(C)=O)C32 (stereo not drawn) [Compound 17]	3240	2140	3020	2090	2950	4070	3720	6460	10700	6460	10500	7760	3720	2090	5750	3020	3550	4680	1450	14800	GI50 (EKVX): 6030 nM; GI50 (MDA-MB-435): 1950 nM; GI50 (SK-MEL-2): 4370 nM; GI50 (SK-MEL-28): 5890 nM; GI50 (SK-MEL-5): 2400 nM; GI50 (IGROV1): 10000 nM; GI50 (OVCAR-5): 10700 nM; GI50 (NCI/ADR-RES): 6030 nM; GI50 (786–0): 6310 nM; GI50 (A498): 10700 nM; GI50 (RXF 393): 5370 nM; GI50 (TK-10): 4570 nM; GI50 (UO-31): 5130 nM; GI50 (PC-3): 3310 nM; GI50 (HS 578T): 14800 nM; GI50 (BT-549): 2340 nM; GI50 (T-47D): 2190 nM
CC[C@]12C=CCN3CC[C@@]4(c5ccc(OC)cc5N(C)[C@H]4[C@@](O)(C(=O)OC)[C@@H]1OC(=O)CCC(=O)N1CCN(C(c4ccc(F)cc4)c4ccc(F)cc4)CC1)[C@@H]32 [Compound 31]	2110	1930	2920	1350	1630	2670	2550	1840	2700	1930	2040	1240	2720	1760	2270	2980	2110	2020	2110	2200	GI50 (MDA-MB-435): 2700 nM; GI50 (SK-MEL-2): 1620 nM; GI50 (SK-MEL-28): 3260 nM; GI50 (SK-MEL-5): 1840 nM; GI50 (IGROV1): 2500 nM; GI50 (OVCAR-5): 2180 nM; GI50 (NCI/ADR-RES): 1950 nM; GI50 (786–0): 2470 nM; GI50 (A498): 2380 nM; GI50 (TK-10): 2570 nM; GI50 (UO-31): 2320 nM; GI50 (PC-3): 1860 nM; GI50 (HS 578T): 1740 nM; GI50 (BT-549): 1810 nM; GI50 (T-47D): 2470 nM
